Data: patent US6355799B1, “Substituted benzene compounds, process for their preparation, and herbicidal and defoliant compositions containing them” (ISK Americas Incorporated, priority 1997, dated 2002)

How the values were obtained:
Format in all cases: in vivo
[1] = system: green foxtail (Setaria viridis, SETVI); assay: Pre-emerge test, greenhouse herbicide activity screening; settings: rating scale 0-100, 14 days after application
Summary of the method: (§1)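 Herbicidal damage is scored 0 (none) to 100 (complete plant death) two weeks after a simulated field spray. Rates span 15–1000 g ai/ha, delivered in acetone at 187 l/ha. For post-emergence treatments, plants have 2–3 leaves and the spray carries 0.25% v/v non-ionic surfactant.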

[2] = system: ivyleaf morningglory (Ipomoea hederacea, IPOHE); assay: as above; settings: rating scale 0-100, 14 days after application
Summary of the method: as §1

[3] = system: large crabgrass (Digitaria sanguinalis, DIGSA); assay: as above; settings: rating scale 0-100, 14 days after application
Summary of the method: as §1

[4] = system: johnsongrass (Sorghum halepense, SORHA); assay: as above; settings: rating scale 0-100, 14 days after application
Summary of the method: as §1

[5] = system: lambsquarters (Chenopodium album, CHEAL); assay: as above; settings: rating scale 0-100, 14 days after application
Summary of the method: as §1

[6] = system: sicklepod (Cassia obtusifolia, CASOB); assay: as above; settings: rating scale 0-100, 14 days after application
Summary of the method: as §1

[7] = system: barnyardgrass (Echinochloa crus-galli, ECHCG); assay: as above; settings: rating scale 0-100, 14 days after application
Summary of the method: as §1

[8] = system: velvetleaf (Abutilon theophrasti, ABUTH); assay: as above; settings: rating scale 0-100, 14 days after application
Summary of the method: as §1

[9] = system: common ragweed (Ambrosia artemisizfolia L., AMBEL); assay: as above; settings: rating scale 0-100, 14 days after application
Summary of the method: as §1

[10] = system: field corn (Zea mays L., var. Dekalb 535, CORN); assay: Post-emerge test, crop safety; settings: rating scale 0-100 (0 no damage, 100 complete death), 14 days after application
Summary of the method: as §1

[11] = system: upland rice (Oryza sp., var. Tebonnet, RICE); assay: Post-emerge test, crop safety; settings: rating scale 0-100 (0 no damage, 100 complete death), 14 days after application
Summary of the method: as §1

[12] = system: field corn (Zea mays L., var. Dekalb 535, CORN); assay: Pre-emerge test, crop safety; settings: rating scale 0-100, 14 days after application
Summary of the method: as §1

[13] = system: upland rice (Oryza sp., var. Tebonnet, RICE); assay: Pre-emerge test, crop safety; settings: rating scale 0-100, 14 days after application
Summary of the method: as §1

[14] = system: redroot pigweed (Amaranthus retroflexus, AMARE); assay: Pre-emerge test, greenhouse herbicide activity screening; settings: rating scale 0-100, 14 days after application
Summary of the method: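 Plants grown in 10 cm pots of sandy loam mix received acetone-dissolved compounds through a moving flat-fan nozzle. Doses ranged from 15 to 1000 g ai/ha. Pre-emerge pots were seeded one day earlier, post-emerge pots 8–21 days earlier. Fourteen days on, each pot was graded 0–100 for damage.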

[15] = system: redroot pigweed (Amaranthus retroflexus, AMARE); assay: Post-emerge test, greenhouse herbicide activity screening; settings: rating scale 0-100 (0 no damage, 100 complete death), 14 days after application
Summary of the method: (§2)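 Rating: 0–100 visual injury, 14 DAA. Application: acetone, 187 l/ha, 15–1000 g ai/ha, flat-fan track sprayer with nozzle 40–45 cm above soil or canopy. Post-emerge runs used 0.25% v/v surfactant on 2–3 leaf plants.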

[16] = system: green foxtail (Setaria viridis, SETVI); assay: as above; settings: rating scale 0-100 (0 no damage, 100 complete death), 14 days after application
Summary of the method: as §2

[17] = system: ivyleaf morningglory (Ipomoea hederacea, IPOHE); assay: as above; settings: rating scale 0-100 (0 no damage, 100 complete death), 14 days after application
Summary of the method: as §2

[18] = system: large crabgrass (Digitaria sanguinalis, DIGSA); assay: as above; settings: rating scale 0-100 (0 no damage, 100 complete death), 14 days after application
Summary of the method: as §2

[19] = system: johnsongrass (Sorghum halepense, SORHA); assay: as above; settings: rating scale 0-100 (0 no damage, 100 complete death), 14 days after application
Summary of the method: as §2

[20] = system: lambsquarters (Chenopodium album, CHEAL); assay: as above; settings: rating scale 0-100 (0 no damage, 100 complete death), 14 days after application
Summary of the method: as §2

[21] = system: sicklepod (Cassia obtusifolia, CASOB); assay: as above; settings: rating scale 0-100 (0 no damage, 100 complete death), 14 days after application
Summary of the method: as §2

[22] = system: barnyardgrass (Echinochloa crus-galli, ECHCG); assay: as above; settings: rating scale 0-100 (0 no damage, 100 complete death), 14 days after application
Summary of the method: as §2

[23] = system: velvetleaf (Abutilon theophrasti, ABUTH); assay: as above; settings: rating scale 0-100 (0 no damage, 100 complete death), 14 days after application
Summary of the method: as §2

[24] = system: common ragweed (Ambrosia artemisizfolia L., AMBEL); assay: as above; settings: rating scale 0-100 (0 no damage, 100 complete death), 14 days after application
Summary of the method: as §2

## CCCCOC(=O)C(C)(Cl)Cc1c(OC)c(Cl)cc(F)c1-n1c(=O)cc(C(F)(F)F)n(C)c1=O (stereo not drawn) [14-36]
[1]; 63 g ai/ha
  Pre-emerge herbicidal activity, phytotoxicity rating SETVI: 10
[1]; 250 g ai/ha
  Pre-emerge herbicidal activity, phytotoxicity rating SETVI: 95
[2]; 63 g ai/ha
  Pre-emerge herbicidal activity, phytotoxicity rating IPOHE: 0
[2]; 250 g ai/ha
  Pre-emerge herbicidal activity, phytotoxicity rating IPOHE: 0
[3]; 63 g ai/ha
  Pre-emerge herbicidal activity, phytotoxicity rating DIGSA: 30
[3]; 250 g ai/ha
  Pre-emerge herbicidal activity, phytotoxicity rating DIGSA: 95
[4]; 63 g ai/ha
  Pre-emerge herbicidal activity, phytotoxicity rating SORHA: 0
[4]; 250 g ai/ha
  Pre-emerge herbicidal activity, phytotoxicity rating SORHA: 30
[5]; 63 g ai/ha
  Pre-emerge herbicidal activity, phytotoxicity rating CHEAL: 75
[5]; 250 g ai/ha
  Pre-emerge herbicidal activity, phytotoxicity rating CHEAL: 100
[6]; 63 g ai/ha
  Pre-emerge herbicidal activity, phytotoxicity rating CASOB: 0
[6]; 250 g ai/ha
  Pre-emerge herbicidal activity, phytotoxicity rating CASOB: 0
[7]; 63 g ai/ha
  Pre-emerge herbicidal activity, phytotoxicity rating ECHCG: 0
[7]; 250 g ai/ha
  Pre-emerge herbicidal activity, phytotoxicity rating ECHCG: 90
[8]; 63 g ai/ha
  Pre-emerge herbicidal activity, phytotoxicity rating ABUTH: 100
[8]; 250 g ai/ha
  Pre-emerge herbicidal activity, phytotoxicity rating ABUTH: 100
[9]; 63 g ai/ha
  Pre-emerge herbicidal activity, phytotoxicity rating AMBEL: 10
[9]; 250 g ai/ha
  Pre-emerge herbicidal activity, phytotoxicity rating AMBEL: 80
[10]; Rate 63 g ai/ha
  Post-emerge phytotoxicity rating CORN (crop damage): 95
[10]; Rate 250 g ai/ha
  Post-emerge phytotoxicity rating CORN (crop damage): 95
[11]; Rate 63 g ai/ha
  Post-emerge phytotoxicity rating RICE (crop damage): 35
[11]; Rate 250 g ai/ha
  Post-emerge phytotoxicity rating RICE (crop damage): 60
[12]; 63 g ai/ha
  Pre-emerge phytotoxicity rating, crop damage CORN: 0
[12]; 250 g ai/ha
  Pre-emerge phytotoxicity rating, crop damage CORN: 10
[13]; 63 g ai/ha
  Pre-emerge phytotoxicity rating, crop damage RICE: 10
[13]; 250 g ai/ha
  Pre-emerge phytotoxicity rating, crop damage RICE: 70
[14]; 63 g ai/ha
  Pre-emerge herbicidal activity, phytotoxicity rating AMARE: 75
[14]; 250 g ai/ha
  Pre-emerge herbicidal activity, phytotoxicity rating AMARE: 100
[15]; Rate 63 g ai/ha
  Post-emerge Herbicidal Activity, phytotoxicity rating AMARE: 100
[15]; Rate 250 g ai/ha
  Post-emerge Herbicidal Activity, phytotoxicity rating AMARE: 100
[16]; Rate 63 g ai/ha
  Post-emerge Herbicidal Activity, phytotoxicity rating SETVI: 85
[16]; Rate 250 g ai/ha
  Post-emerge Herbicidal Activity, phytotoxicity rating SETVI: 99
[17]; Rate 63 g ai/ha
  Post-emerge Herbicidal Activity, phytotoxicity rating IPOHE: 30
[17]; Rate 250 g ai/ha
  Post-emerge Herbicidal Activity, phytotoxicity rating IPOHE: 70
[18]; Rate 63 g ai/ha
  Post-emerge Herbicidal Activity, phytotoxicity rating DIGSA: 40
[18]; Rate 250 g ai/ha
  Post-emerge Herbicidal Activity, phytotoxicity rating DIGSA: 65
[19]; Rate 63 g ai/ha
  Post-emerge Herbicidal Activity, phytotoxicity rating SORHA: 20
[19]; Rate 250 g ai/ha
  Post-emerge Herbicidal Activity, phytotoxicity rating SORHA: 40
[20]; Rate 63 g ai/ha
  Post-emerge Herbicidal Activity, phytotoxicity rating CHEAL: 99
[20]; Rate 250 g ai/ha
  Post-emerge Herbicidal Activity, phytotoxicity rating CHEAL: 100
[21]; Rate 63 g ai/ha
  Post-emerge Herbicidal Activity, phytotoxicity rating CASOB: 20
[21]; Rate 250 g ai/ha
  Post-emerge Herbicidal Activity, phytotoxicity rating CASOB: 40
[22]; Rate 63 g ai/ha
  Post-emerge Herbicidal Activity, phytotoxicity rating ECHCG: 99
[22]; Rate 250 g ai/ha
  Post-emerge Herbicidal Activity, phytotoxicity rating ECHCG: 100
[23]; Rate 63 g ai/ha
  Post-emerge Herbicidal Activity, phytotoxicity rating ABUTH: 95
[23]; Rate 250 g ai/ha
  Post-emerge Herbicidal Activity, phytotoxicity rating ABUTH: 100
[24]; Rate 63 g ai/ha
  Post-emerge Herbicidal Activity, phytotoxicity rating AMBEL: 100
[24]; Rate 250 g ai/ha
  Post-emerge Herbicidal Activity, phytotoxicity rating AMBEL: 95
